Experimental data taken from paper PMC12803606, “A metabolic comparison of GIPR agonism versus GIPR antagonism in male mice” (Diabetes, Obesity & Metabolism, 2025).

Assays:
glucagon secretion = details: cited from earlier work
Text: We next investigated the effects of GIP108 and NN‐GIPR‐Ant administration on insulin sensitivity.

CTX = details: rodent models and humans; cited from earlier work
[1] = human study, 6‐day GIP infusion; cited from earlier work
Text: We also investigated the effects of GIPR agonism and antagonism on liver triglyceride content.

[2] = test system: osteoblastic and osteoclastic activity; details: cited from earlier work
human adipocytes = details: acute administration; ex vivo and in vivo glucose uptake; cited from earlier work
Text: Another important focus of this study was the effect of GIP108 and NN‐GIPR‐Ant administration on insulin sensitivity.

GIPR = assay: Intraperitoneal glucose tolerance test in lean mice, hGIP with NN-GIPR-Ant (in vivo antagonism); set-up: species or system mouse; details: n = 8, hGIP 50 nmol/kg with glucose 2 g/kg at t = 0
Experimental: (A–C) Amino acid sequences of hGIP (A), GIP108 (B) and NN‐GIPR‐Ant (C). AIB = 2‐aminoisobutyric acid. Side chains denote fatty acid tails. (D–F) cAMP measurements in AD293 cells transiently transfected with the mGIPR (D), mGLP‐1R (E) and mGCGR (F) and stimulated for 30 min with the indicated peptide (n = 3), with three parameter curve fits plotted. (G, H) 60‐min intraperitoneal glucose tolerance test in lean mice (n = 8). (G) Plasma glucose over time with glucose ± hGIP injected at t = 0 and NN‐GIPR‐Ant injected at t = −120 min, analysed using two‐way ANOVA with time and subgroup as co‐variables. (H) Glucose AUC derived from the time course in (H), analysed using a one‐way ANOVA. Dunnett's test was used to correct for multiple comparisons against vehicle control. […] The colour of the star denotes which group is statistically different compared to vehicle control.
All animal procedures were approved by the British Home Office under the UK Animals (Scientific Procedures) Act 1986, and Amendment Regulations, 2012 and approved by the Imperial College London Animal Welfare and Ethical Review Body. Wild type male C57BL/6J mice (8-14 weeks; Charles River, UK) were used. […]
Mice were fasted at 08:00. […] Total glucose AUC was calculated by trapezoidal rule using y=0 as baseline. Glucose readings were measured in mmol/L using the same ISO15197-compliant GlucoRx Nexus (GlucoRx, Guildford, UK) glucometer.

mouse GIPR = assay: HTRF cAMP assay, AD293 cells transiently transfected with mGIPR; type: cell-based; details: 30 min, n = 3
Text: For the antagonist we used a long‐acting GIPR antagonist, named throughout as NN‐GIPR‐Ant, previously characterised by Yang et al.[7] We first confirmed the actions of NN‐GIPR‐Ant as a mouse GIPR antagonist, performing in vitro cAMP assays in AD293 cells, a human embryonic kidney cell line commonly used in G‐protein coupled receptor research due to rapid division and ease of receptor transfection.
(A–C) Amino acid sequences of hGIP (A), GIP108 (B) and NN‐GIPR‐Ant (C). AIB = 2‐aminoisobutyric acid. Side chains denote fatty acid tails. (D–F) cAMP measurements in AD293 cells transiently transfected with the mGIPR (D), mGLP‐1R (E) and mGCGR (F) and stimulated for 30 min with the indicated peptide (n = 3), with three parameter curve fits plotted. (G, H) 60‐min intraperitoneal glucose tolerance test in lean mice (n = 8). (G) Plasma glucose over time with glucose ± hGIP injected at t = 0 and NN‐GIPR‐Ant injected at t = −120 min, analysed using two‐way ANOVA with time and subgroup as co‐variables. (H) Glucose AUC derived from the time course in (H), analysed using a one‐way ANOVA. Dunnett's test was used to correct for multiple comparisons against vehicle control. […] The colour of the star denotes which group is statistically different compared to vehicle control. […]

humans = details: ref 12 (as cited in b3; abstract prints none); cited from earlier work

For “glucose‐dependent insulinotropic polypeptide [GIP]”, the “glucagon secretion in hypoglycaemia” value (glucagon secretion) is given as “potently stimulate glucagon secretion in hypoglycaemia”, the “CTX levels, acute” value (CTX) is given as “acutely lowers CTX levels” and the liver fat [1] is given as “increased liver fat”. The “osteoblastic and osteoclastic activity” value [2] was “increases osteoblastic and suppresses osteoclastic activity” and the “insulin sensitising effect in human adipocytes” value (human adipocytes) was “increasing adipocyte glucose uptake both ex vivo and in vivo”.

In the case of “hGIP: hGIP(1‐42); sequence in Figure 1A (YAEGTFISDYSIAMDKIHQQDFVNWLLAQKGKKNDWKHNITQ; Gastric inhibitory polypeptide; UniProt P09681 52-93, looked up)”, the “improvement of glucose tolerance by hGIP” value (GIPR) is reported as “improve glucose tolerance” and the “stimulation of cAMP at mouse GIPR” value (mouse GIPR) is reported as “ability to stimulate cAMP”.

For “maridebart cafraglutide: Amgen's high‐affinity GIPR antagonist antibody with GLP‐1R agonist conjugate arms”, the “weight loss effects in humans” value (humans) is given as “significant weight loss effects in humans”.
